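Method: 48-hour compound exposure of cells in 96-well plates, five concentrations, linear interpolation of endpoints. GI50 is the concentration that inhibits growth by half. At the TGI there is no net growth.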
What was measured:
Assay in all cases: NCI tumour cell line growth inhibition, 48 h; in the data active = GI50 below about 0.43 µM; inactive = the rest
SK-OV-3 ovarian = test system: SK-OV-3 ovarian
A498 renal = test system: A498 renal
SK-MEL-28 melanoma = test system: SK-MEL-28 melanoma
ACHN renal = test system: ACHN renal
HT29 colon = test system: HT29 colon
A549 NSCLC = test system: A549 NSCLC
OVCAR-5 ovarian = test system: OVCAR-5 ovarian
SW-620 colon = test system: SW-620 colon
TK-10 renal = test system: TK-10 renal
786-0 renal = test system: 786-0 renal
UACC-257 melanoma = test system: UACC-257 melanoma
DU-145 prostate = test system: DU-145 prostate
PC-3 prostate = test system: PC-3 prostate
NCI/ADR-RES ovarian = test system: NCI/ADR-RES ovarian
UO-31 renal = test system: UO-31 renal
UACC-62 melanoma = test system: UACC-62 melanoma
MDA-MB-231 breast = test system: MDA-MB-231 breast
MDA-MB-435 = test system: MDA-MB-435
SK-MEL-5 melanoma = test system: SK-MEL-5 melanoma
EKVX NSCLC = test system: EKVX NSCLC
HCT-116 colon = test system: HCT-116 colon
SN12C renal = test system: SN12C renal
SNB-19 CNS = test system: SNB-19 CNS
HS 578T breast = test system: HS 578T breast
MOLT-4 leukemia = test system: MOLT-4 leukemia
NCI-H460 lung = test system: NCI-H460 lung
NCI-H226 lung = test system: NCI-H226 lung
BT-549 breast = test system: BT-549 breast
HOP-92 NSCLC = test system: HOP-92 NSCLC
COLO 205 colon = test system: COLO 205 colon
SNB-75 CNS = test system: SNB-75 CNS
HOP-62 NSCLC = test system: HOP-62 NSCLC
M14 melanoma = test system: M14 melanoma
LOX IMVI melanoma = test system: LOX IMVI melanoma
K-562 leukemia = test system: K-562 leukemia
NCI-H23 lung = test system: NCI-H23 lung
HL-60(TB) leukemia = test system: HL-60(TB) leukemia
OVCAR-8 ovarian = test system: OVCAR-8 ovarian
U251 CNS = test system: U251 CNS
RXF 393 renal = test system: RXF 393 renal
MCF7 breast = test system: MCF7 breast
SF-539 CNS = test system: SF-539 CNS
HCT-15 colon = test system: HCT-15 colon
SF-268 CNS = test system: SF-268 CNS
KM12 colon = test system: KM12 colon
IGROV1 ovarian = test system: IGROV1 ovarian
RPMI-8226 leukemia = test system: RPMI-8226 leukemia
SK-MEL-2 melanoma = test system: SK-MEL-2 melanoma
HCC-2998 colon = test system: HCC-2998 colon
SF-295 CNS = test system: SF-295 CNS
CAKI-1 renal = test system: CAKI-1 renal
CCRF-CEM leukemia = test system: CCRF-CEM leukemia
OVCAR-4 ovarian = test system: OVCAR-4 ovarian
NCI-H522 lung = test system: NCI-H522 lung
MALME-3M melanoma = test system: MALME-3M melanoma

CCCc1n(Cc2ccc3ccccc3c2)c2ccccc2[n+]1Cc1ccc2ccccc2c1
1.28 µM: TGI (HT29 colon)
active: GI50 (A498 renal) 0.356 µM | GI50 (HT29 colon) 0.323 µM | GI50 (UACC-257 melanoma) 0.295 µM | GI50 (PC-3 prostate) 0.354 µM | GI50 (UACC-62 melanoma) 0.318 µM | GI50 (MDA-MB-231 breast) 0.301 µM | GI50 (MDA-MB-435) 0.314 µM | GI50 (SK-MEL-5 melanoma) 0.161 µM
2.56 µM: TGI (786-0 renal)
1.99 µM: TGI (SK-MEL-28 melanoma)
1.7 µM: TGI (SW-620 colon)
1.26 µM: TGI (MDA-MB-435)
2.57 µM: TGI (ACHN renal)
1.42 µM: TGI (UACC-62 melanoma) | TGI (MDA-MB-231 breast)
2.04 µM: TGI (A549 NSCLC)
1.74 µM: TGI (SK-OV-3 ovarian)
1.98 µM: TGI (A498 renal) | TGI (OVCAR-5 ovarian)
1.55 µM: TGI (PC-3 prostate)
1.12 µM: TGI (UACC-257 melanoma)
3 µM: TGI (UO-31 renal)
0.311 µM: TGI (SK-MEL-5 melanoma)
inactive: GI50 (SK-OV-3 ovarian) 0.488 µM | GI50 (SK-MEL-28 melanoma) 0.577 µM | GI50 (ACHN renal) 1.25 µM | GI50 (A549 NSCLC) 0.619 µM | GI50 (OVCAR-5 ovarian) 0.544 µM | GI50 (SW-620 colon) 0.429 µM | GI50 (TK-10 renal) 0.461 µM | GI50 (786-0 renal) 1.06 µM | GI50 (DU-145 prostate) 0.554 µM | GI50 (NCI/ADR-RES ovarian) 3.56 µM | GI50 (UO-31 renal) 1.49 µM
1.85 µM: TGI (DU-145 prostate)
1.68 µM: TGI (TK-10 renal)
53.9 µM: TGI (NCI/ADR-RES ovarian)

COc1ccc2c(c1)SC1=NNC(Cl)C(=O)N12 (stereo not drawn)
54.1 µM: TGI (RPMI-8226 leukemia)
34 µM: TGI (SK-MEL-5 melanoma)
39.6 µM: TGI (NCI-H23 lung)
36 µM: TGI (UACC-62 melanoma)
59.1 µM: TGI (RXF 393 renal)
35.6 µM: TGI (MDA-MB-231 breast)
37.3 µM: TGI (SN12C renal)
54.2 µM: TGI (OVCAR-8 ovarian)
> 100 µM: TGI (SK-OV-3 ovarian) | TGI (SNB-19 CNS) | TGI (HS 578T breast) | TGI (MOLT-4 leukemia) | TGI (NCI-H460 lung) | TGI (A549 NSCLC) | TGI (HOP-62 NSCLC) | TGI (K-562 leukemia) | TGI (786-0 renal) | TGI (HL-60(TB) leukemia) | TGI (MCF7 breast) | TGI (PC-3 prostate) | TGI (UO-31 renal) | TGI (IGROV1 ovarian) | TGI (SK-MEL-2 melanoma)
62.1 µM: TGI (SF-268 CNS)
48 µM: TGI (KM12 colon)
65.7 µM: TGI (SW-620 colon)
40.6 µM: TGI (BT-549 breast)
inactive: GI50 (EKVX NSCLC) 10.5 µM | GI50 (SK-OV-3 ovarian) 33 µM | GI50 (HCT-116 colon) 24 µM | GI50 (SN12C renal) 16.5 µM | GI50 (SNB-19 CNS) 38.4 µM | GI50 (A498 renal) 26.1 µM | GI50 (HS 578T breast) 40.4 µM | GI50 (SK-MEL-28 melanoma) 13.7 µM | GI50 (ACHN renal) 12.4 µM | GI50 (MOLT-4 leukemia) 31.2 µM | GI50 (NCI-H460 lung) 29.5 µM | GI50 (NCI-H226 lung) 16.2 µM | GI50 (HT29 colon) 11.8 µM | GI50 (A549 NSCLC) 38.1 µM | GI50 (BT-549 breast) 17.2 µM | GI50 (HOP-92 NSCLC) 20.1 µM | GI50 (COLO 205 colon) 16.7 µM | GI50 (OVCAR-5 ovarian) 27.9 µM | GI50 (SW-620 colon) 21.8 µM | GI50 (SNB-75 CNS) 30.3 µM | GI50 (TK-10 renal) 26.6 µM | GI50 (HOP-62 NSCLC) 45.5 µM | GI50 (M14 melanoma) 17.3 µM | GI50 (LOX IMVI melanoma) 16 µM | GI50 (K-562 leukemia) 35.3 µM | GI50 (NCI-H23 lung) 18 µM | GI50 (786-0 renal) 33.2 µM | GI50 (HL-60(TB) leukemia) 33.9 µM | GI50 (UACC-257 melanoma) 18.2 µM | GI50 (OVCAR-8 ovarian) 21.5 µM | GI50 (U251 CNS) 18.9 µM | GI50 (RXF 393 renal) 18.4 µM | GI50 (MCF7 breast) 24.5 µM | GI50 (DU-145 prostate) 12.8 µM | GI50 (SF-539 CNS) 15.6 µM | GI50 (PC-3 prostate) 37 µM | GI50 (NCI/ADR-RES ovarian) 19.8 µM | GI50 (UO-31 renal) 5.9 µM | GI50 (HCT-15 colon) 15.8 µM | GI50 (SF-268 CNS) 24.2 µM | GI50 (UACC-62 melanoma) 15.6 µM | GI50 (KM12 colon) 20.7 µM | GI50 (MDA-MB-231 breast) 15.3 µM | GI50 (IGROV1 ovarian) 25.2 µM | GI50 (RPMI-8226 leukemia) 18.2 µM | GI50 (SK-MEL-5 melanoma) 15.6 µM | GI50 (SK-MEL-2 melanoma) 42.1 µM
35.1 µM: TGI (HT29 colon)
64.3 µM: TGI (NCI-H226 lung)
48.4 µM: TGI (M14 melanoma)
47.6 µM: TGI (NCI/ADR-RES ovarian)
37.8 µM: TGI (SF-539 CNS)
37.4 µM: TGI (LOX IMVI melanoma)
45.1 µM: TGI (U251 CNS)
26.3 µM: TGI (ACHN renal)
94.1 µM: TGI (OVCAR-5 ovarian)
29.1 µM: TGI (EKVX NSCLC)
35.2 µM: TGI (SK-MEL-28 melanoma)
53.3 µM: TGI (A498 renal)
30.3 µM: TGI (DU-145 prostate)
38.4 µM: TGI (HCT-15 colon)
83.5 µM: TGI (SNB-75 CNS)
81.1 µM: TGI (TK-10 renal)
87.3 µM: TGI (HCT-116 colon)
42.5 µM: TGI (UACC-257 melanoma)
44.3 µM: TGI (COLO 205 colon)
56.2 µM: TGI (HOP-92 NSCLC)

Cc1ccc(-c2c(C#N)c(-c3ccccc3)c(C#N)c(=O)n2NS(=O)(=O)c2ccc(C)cc2)cc1
8.79 µM: TGI (RPMI-8226 leukemia)
33.5 µM: TGI (SNB-19 CNS)
31.9 µM: TGI (SK-MEL-5 melanoma)
89.7 µM: TGI (CCRF-CEM leukemia)
41.1 µM: TGI (MOLT-4 leukemia)
> 100 µM: TGI (HCC-2998 colon) | TGI (EKVX NSCLC) | TGI (SK-OV-3 ovarian) | TGI (HCT-116 colon) | TGI (SN12C renal) | TGI (A498 renal) | TGI (SF-295 CNS) | TGI (HS 578T breast) | TGI (SK-MEL-28 melanoma) | TGI (ACHN renal) | TGI (NCI-H460 lung) | TGI (CAKI-1 renal) | TGI (NCI-H226 lung) | TGI (HT29 colon) | TGI (A549 NSCLC) | TGI (BT-549 breast) | TGI (HOP-92 NSCLC) | TGI (COLO 205 colon) | TGI (OVCAR-5 ovarian) | TGI (SW-620 colon) | TGI (SNB-75 CNS) | TGI (TK-10 renal) | TGI (HOP-62 NSCLC) | TGI (OVCAR-4 ovarian) | TGI (M14 melanoma) | TGI (LOX IMVI melanoma) | TGI (K-562 leukemia) | TGI (786-0 renal) | TGI (UACC-257 melanoma) | TGI (OVCAR-8 ovarian) | TGI (U251 CNS) | TGI (RXF 393 renal) | TGI (MCF7 breast) | TGI (NCI-H522 lung) | TGI (SF-539 CNS) | TGI (PC-3 prostate) | TGI (NCI/ADR-RES ovarian) | TGI (MALME-3M melanoma) | TGI (HCT-15 colon) | TGI (SF-268 CNS) | TGI (UACC-62 melanoma) | TGI (KM12 colon) | TGI (MDA-MB-231 breast) | TGI (IGROV1 ovarian) | TGI (MDA-MB-435) | TGI (SK-MEL-2 melanoma)

Reference: PubChem BioAssay (NCI)
